From article PMC3939009, “Thrombin inhibitory activity of some polyphenolic compounds” (Medicinal Chemistry Research, 2013)
pIC50: −log10 of the molar value.

biological target: human thrombin (Homo sapiens, UniProt P00734); assay: Amidolytic activity of thrombin (hydrolysis of chromogenic substrate D-Phe-Pip-Arg-pNA); assay type: biochemical; parameters: Thrombin, also known as an active plasma coagulation factor II; purchased Sigma-Aldrich Chemical Co. (St. Louis, MO, USA) T7009; host or cells: purified from human plasma; details: not given
Protocol: All tested compounds were dissolved in 50 % DMSO to the initial concentration of 10 mM; other solutions of compounds were also prepared in 50 % DMSO (prepared in 50 mM TBS, pH 7.4). The final concentration of DMSO in thrombin samples was 5 %. To prepare thrombin control samples, the same volume of solvent (50 % DMSO prepared in 50 mM TBS, pH 7.4) was added as in the case of the compound volume and warmed for 10 min to 37 °C.
To each reaction well, 40 μl of 3 mM chromogenic substrate was added. To initiate the chromogenic reaction, 280 μl of control thrombin (without tested compounds) or thrombin after preincubation with a polyphenolic compound to every reaction well in the same moment was added. The absorbance value was monitored every 12 s for 10 min. The maximal velocity of the reaction (V max, Δm OD/min) for each absorbance curve was determined. IC50 value (parameter) for every polyphenolic compound from inhibition curves was estimated.

| Compound | pIC50 |
| --- | --- |
| O=C(O)c1cc(O)c(O)c(O)c1 [Gallic acid, gallic acid] | < 3.00 |
| O=c1c(-c2ccc(O)cc2)coc2cc(O)cc(O)c12 [Genistein, genistein] | < 3.00 |

same assay, conditions: at 375 μM substrate concentration; compounds 0.1–1,000 μM, preincubation 10 min 37 °C; read-out: IC50, amidolytic activity of human thrombin

| Compound | pIC50 |
| --- | --- |
| O=C(O)Cc1ccc(O)cc1 [4-Hydroxyphenylacetic acid, 4-hydroxyphenylacetic acid] | < 3.00 |
| O=C(O)/C=C/c1ccc(O)c(O)c1 [Caffeic acid, caffeic acid] | < 3.00 |
| O=C(/C=C/c1ccc(O)c(O)c1)O[C@@H]1C[C@](O)(C(=O)O)C[C@@H](O)[C@H]1O [Chlorogenic acid, chlorogenic acid] | < 3.00 |
| O=C(O)/C=C/c1ccc(O)cc1 [Coumaric acid, coumaric acid] | < 3.00 |
| COc1cc(/C=C/C(=O)O)ccc1O [Ferulic acid, ferulic acid] | < 3.00 |
| COc1ccc([C@@H]2CC(=O)c3c(O)cc(O)cc3O2)cc1O [Hesperetin, hesperetin] | < 3.00 |
| COc1ccc([C@@H]2CC(=O)c3c(O)cc(O[C@@H]4O[C@H](CO[C@@H]5O[C@@H](C)[C@H](O)[C@@H](O)[C@H]5O)[C@@H](O)[C@H](O)[C@H]4O)cc3O2)cc1O [Hesperidin, hesperidin] | < 3.00 |
| O=C1C[C@@H](c2ccc(O)cc2)Oc2cc(O)cc(O)c21 [Naringenin, naringenin] | < 3.00 |
| C[C@@H]1O[C@@H](O[C@H]2[C@H](Oc3cc(O)c4c(c3)O[C@H](c3ccc(O)cc3)CC4=O)O[C@H](CO)[C@@H](O)[C@@H]2O)[C@H](O)[C@H](O)[C@H]1O [Naringin, naringin] | < 3.00 |
| Oc1cc(O)c2c(c1)O[C@H](c1ccc(O)c(O)c1)[C@H](O)[C@H]2c1c(O)cc(O)c2c1O[C@H](c1ccc(O)c(O)c1)[C@H](O)C2 [Procyanidin B2, procyanidin B2] | < 3.00 |
| Oc1ccc(/C=C/c2cc(O)cc(O)c2)cc1 [Resveratrol, resveratrol] | < 3.00 |
| C[C@@H]1O[C@@H](OC[C@H]2O[C@@H](Oc3c(-c4ccc(O)c(O)c4)oc4cc(O)cc(O)c4c3=O)[C@H](O)[C@@H](O)[C@@H]2O)[C@H](O)[C@H](O)[C@H]1O [Rutin, rutin] | < 3.00 |
